Measurements reported in patent publication US10865216B2, “Tricyclic Gyrase inhibitors” (MERCK SHARP & DOHME CORP., priority 2012, dated 2020).
In brackets after ≈: the same amount, converted by molar mass.

Legend:
S. aureus ATCC 13709 = test: MIC, S. aureus ATCC 13709; type: cell-based; conditions: Alamar Blue read after overnight incubation at 35° C.; for MIC: Staphylococcus aureus, ATCC13709, S. aureus, read-out: MIC Sa; for MIC Sa: S. aureus
E. coli ATCC 25922 = test: MIC, E. coli ATCC 25922; type: cell-based; conditions: Alamar Blue read after overnight incubation at 35° C.; for MIC: Escherichia coli, ATCC25922, E. coli, read-out: MIC Ec; for MIC Ec: E. coli

MIC (S. aureus ATCC 13709)	MIC (E. coli ATCC 25922)	MIC Sa (S. aureus ATCC 13709)	MIC Ec (E. coli ATCC 25922)	Compound
≤ 0.5 µg/mL	8 µg/mL (≈ 16.5 µM)			CNc1ccc(C)c2c1[nH]c1nc(Sc3cnc4ccc[n+]([O-])c4c3)nc(N3CC4C(N)C4C3)c12 (stereo not shown) [Compound 1.73]
4 µg/mL (≈ 8.04 µM)	> 64 µg/mL			CNc1cccc2c1[nH]c1nc(Sc3ccc4ccc(C(=O)O)nc4c3)nc(N3CC4C(N)C4C3)c12 (stereo not shown) [Compound 1.74]
≤ 0.5 µg/mL	> 64 µg/mL			COc1cccc2c1[nH]c1nc(Sc3cnc4cccnc4c3)nc(N3CC4C(N)C4C3)c12 (stereo not shown) [Compound 1.75]
1 µg/mL (≈ 2.19 µM)	> 64 µg/mL			COc1cccc2c1[nH]c1nc(Sc3cnc4nccnc4c3)nc(N3CC4C(N)C4C3)c12 (stereo not shown) [Compound 1.76]
2 µg/mL (≈ 4.49 µM)	> 64 µg/mL			COc1cccc2c1[nH]c1nc(Sc3cnc4ccc[n+]([O-])c4c3)nc(N3CC(N)C3)c12 [Compound 1.77]
≤ 0.5 µg/mL	64 µg/mL (≈ 139 µM)			COc1cccc2c1[nH]c1nc(Sc3cnc4ccc[n+]([O-])c4c3)nc(N3CC[C@@H](N)C3)c12 [Compound 1.78]
		≤0.5 µg/mL	>16 µg/mL	CNNc1cc(F)cc2c1[nH]c1nc(Oc3cnc(C)nc3)nc(N3CC4C(N)C4C3)c12 (stereo not shown) [Compound 2.1]
		2 µg/mL (≈ 4.93 µM)	4 µg/mL (≈ 9.87 µM)	CCc1cc(F)cc2c1[nH]c1nc(Oc3cncnc3)nc(N3CC4C(N)C4C3)c12 (stereo not shown) [Compound 2.2]
		1 µg/mL (≈ 2.31 µM)	16 µg/mL (≈ 36.9 µM)	CCc1cc(F)cc2c1[nH]c1nc(Oc3cnc(C)nc3)nc(N3CC(N)C4(CC4)C3)c12 (stereo not shown) [Compound 2.3]
		≤0.5 µg/mL	1 µg/mL (≈ 2.31 µM)	CCc1cc(F)cc2c1[nH]c1nc(Oc3cnc(C)nc3)nc(N3CC4CC(N)C4C3)c12 (stereo not shown) [Compound 2.4]
		4 µg/mL (≈ 10.2 µM)	>16 µg/mL	Cc1cc(F)cc2c1[nH]c1nc(Oc3cncnc3)nc(N3CC4C(N)C4C3)c12 (stereo not shown) [Compound 2.7]
		16 µg/mL (≈ 37.7 µM)	>64 µg/mL	Nc1cccc2c1[nH]c1nc(Oc3cnc4cccnc4c3)nc(N3CC4C(N)C4C3)c12 (stereo not shown) [Compound 2.8]
		16 µg/mL (≈ 38.1 µM)	16 µg/mL (≈ 38.1 µM)	Cc1ncc(Oc2nc(N3CC(N)C4(CC4)C3)c3c(n2)[nH]c2c(N)cc(F)cc23)cn1 (stereo not shown) [Compound 2.9]
		2 µg/mL (≈ 5.3 µM)	32 µg/mL (≈ 84.8 µM)	COc1cccc2c1[nH]c1nc(Oc3cncnc3)nc(N3CC[C@@H](N)C3)c12 [Compound 2.10]
		4 µg/mL (≈ 9.54 µM)	>64 µg/mL	COc1cccc2c1[nH]c1nc(Oc3cncnc3)nc(N3CCC(NC(C)=O)C3)c12 (stereo not shown) [Compound 2.11]
		16 µg/mL (≈ 38.8 µM)	>64 µg/mL	COc1cccc2c1[nH]c1nc(Oc3cccc(C#N)c3)nc(N3CC4C(N)C4C3)c12 (stereo not shown) [Compound 2.12]
		2 µg/mL (≈ 5.14 µM)	64 µg/mL (≈ 164 µM)	COc1cccc2c1[nH]c1nc(Oc3cncnc3)nc(N3CC4C(N)C4C3)c12 (stereo not shown) [Compound 2.13]
		1 µg/mL (≈ 2.28 µM)	>64 µg/mL	COc1cccc2c1[nH]c1nc(Oc3cnc4cccnc4c3)nc(N3CC4C(N)C4C3)c12 (stereo not shown) [Compound 2.14]
		1 µg/mL (≈ 2.42 µM)	>32 µg/mL	COc1cccc2c1[nH]c1nc(Oc3cccc(C#N)c3)nc(N3CC4C(N)C4C3)c12 (stereo not shown) [Compound 2.15]
8 µg/mL (≈ 19 µM)	16 µg/mL (≈ 38.1 µM)			Cc1ncc(Oc2nc(N3CC4CC3C[C@H]4N)c3c(n2)[nH]c2c(N)cc(F)cc23)cn1 (stereo partly shown) [Compound 2.16]
1 µg/mL (≈ 2.58 µM)	4 µg/mL (≈ 10.3 µM)			CNc1cccc2c1[nH]c1nc(Oc3cncnc3)cc(N3CC4CC4(N)C3)c12 (stereo not shown) [Compound 3.1]

MIC (S. aureus ATCC 13709)	MIC (E. coli ATCC 25922)	MIC Sa (S. aureus ATCC 13709)	MIC Ec (E. coli ATCC 25922)	Compound
0.5 µg/mL (≈ 1.25 µM)	1 µg/mL (≈ 2.5 µM)			CNc1cccc2c1[nH]c1nc(Oc3cncc(C#N)c3)cc(N3CC[C@@H](N)C3)c12 [Compound 3.3]
0.5 µg/mL (≈ 1.33 µM)	≤ 0.5 µg/mL			CNc1cccc2c1[nH]c1nc(Oc3cncnc3)cc(N3CC[C@@H](N)C3)c12 [Compound 3.4]
0.25 µg/mL (≈ 0.642 µM)	≤ 0.5 µg/mL			CNc1cccc2c1[nH]c1nc(Oc3cnc(C)nc3)cc(N3CC[C@@H](N)C3)c12 [Compound 3.5]
0.5 µg/mL (≈ 1.27 µM)	1 µg/mL (≈ 2.55 µM)			CNc1cccc2c1[nH]c1nc(Oc3cncc(F)c3)cc(N3CC[C@@H](N)C3)c12 [Compound 3.6]
1 µg/mL (≈ 2.47 µM)	4 µg/mL (≈ 9.89 µM)			CNc1cccc2c1[nH]c1nc(Oc3cncc(F)c3)cc(N3CC4CNC4C3)c12 (stereo not shown) [Compound 3.7]
16 µg/mL (≈ 40.9 µM)	> 64 µg/mL			CNc1cccc2c1[nH]c1nc(Oc3cncnc3)cc(N3CC(N)C(O)C3)c12 (stereo not shown) [Compound 3.8]
2 µg/mL (≈ 5.6 µM)	32 µg/mL (≈ 89.5 µM)			CNc1cccc2c1[nH]c1nc(Oc3cncnc3)cc(-c3cn[nH]c3)c12 [Compound 3.9]
32 µg/mL (≈ 72.3 µM)	> 64 µg/mL			CNc1cccc2c1[nH]c1nc(Oc3cnc(C)nc3)cc(N3CC[C@@H](NCCC#N)C3)c12 [Compound 3.10]
≤ 0.5 µg/mL	2 µg/mL (≈ 4.4 µM)			CNc1cccc2c1[nH]c1nc(Oc3cnc(C)nc3)cc(N3CC4C(C3)C4NCCC#N)c12 (stereo not shown) [Compound 3.11]
1 µg/mL (≈ 2.2 µM)	8 µg/mL (≈ 17.6 µM)			CNc1cccc2c1[nH]c1nc(Oc3cncnc3)cc(N3C[C@H](NCC4CC4)C4(CC4)C3)c12 [Compound 3.12]
≤ 0.5 µg/mL	1 µg/mL (≈ 2.26 µM)			CNc1cccc2c1[nH]c1nc(Oc3cncnc3)cc(N3CC4C(C3)C4NCC3CC3)c12 (stereo not shown) [Compound 3.13]
≤ 0.5 µg/mL	2 µg/mL (≈ 4.39 µM)			CNc1cccc2c1[nH]c1nc(Oc3cnc(C)nc3)cc(N3CC4C(C3)C4NCC3CC3)c12 (stereo not shown) [Compound 3.14]
1 µg/mL (≈ 2.41 µM)	8 µg/mL (≈ 19.3 µM)			CNc1cccc2c1[nH]c1nc(Oc3cncnc3)cc(N3CC4CCC(N)C4C3)c12 (stereo not shown) [Compound 3.15]
4 µg/mL (≈ 10.3 µM)	4 µg/mL (≈ 10.3 µM)			CNc1cccc2c1[nH]c1nc(Oc3cncnc3)cc(N3CCC[C@@H](N)C3)c12 [Compound 3.16]
2 µg/mL (≈ 4.96 µM)	> 16 µg/mL			CNc1cccc2c1[nH]c1nc(Oc3cncnc3)cc(N3CCC(C(N)=O)C3)c12 (stereo not shown) [Compound 3.17]
4 µg/mL (≈ 9 µM)	> 16 µg/mL			CNc1cccc2c1[nH]c1nc(Oc3cncnc3)cc(N3CC4C(C3)C4NC(=O)CN)c12 (stereo not shown) [Compound 3.18]
8 µg/mL (≈ 18.6 µM)	32 µg/mL (≈ 74.5 µM)			CNc1cccc2c1[nH]c1nc(Oc3cncc(C(N)=O)c3)cc(N3CC4C(N)C4C3)c12 (stereo not shown) [Compound 3.19]
> 8 µg/mL	> 8 µg/mL			CNc1cccc2c1[nH]c1nc(Oc3cncc(C(=O)O)c3)cc(N3CC4C(N)C4C3)c12 (stereo not shown) [Compound 3.20]
≤ 0.5 µg/mL	1 µg/mL (≈ 2.25 µM)			CNc1cccc2c1[nH]c1nc(Oc3ccc(C(=O)OC)nc3)cc(N3CC4C(N)C4C3)c12 (stereo not shown) [Compound 3.21]
16 µg/mL (≈ 37.2 µM)	64 µg/mL (≈ 149 µM)			CNc1cccc2c1[nH]c1nc(Oc3ccc(C(=O)O)nc3)cc(N3CC4C(N)C4C3)c12 (stereo not shown) [Compound 3.22]
≤ 0.5 µg/mL	2 µg/mL (≈ 4.69 µM)			CNc1cccc2c1[nH]c1nc(Oc3cnc4ccoc4c3)cc(N3CC4C(N)C4C3)c12 (stereo not shown) [Compound 3.23]

MIC (S. aureus ATCC 13709)	MIC (E. coli ATCC 25922)	MIC Sa (S. aureus ATCC 13709)	MIC Ec (E. coli ATCC 25922)	Compound
> 16 µg/mL	> 16 µg/mL			CNc1cccc2c1[nH]c1nc(Oc3cnc(N4CCOCC4)nc3)cc(N3CC4C(N)C4C3)c12 (stereo not shown) [Compound 3.26]
1 µg/mL (≈ 2.43 µM)	4 µg/mL (≈ 9.72 µM)			CNc1cccc2c1[nH]c1nc(Oc3cncc(C#N)c3)cc(N3CC4C(N)C4C3)c12 (stereo not shown) [Compound 3.27]
1 µg/mL (≈ 2.58 µM)	2 µg/mL (≈ 5.16 µM)			CNc1cccc2c1[nH]c1nc(Oc3cncnc3)cc(N3CC4C(N)C4C3)c12 (stereo not shown) [Compound 3.28]
≤ 0.5 µg/mL	≤ 0.5 µg/mL			CNc1cccc2c1[nH]c1nc(Oc3cnc(C)nc3)cc(N3CC4C(N)C4C3)c12 (stereo not shown) [Compound 3.29]
16 µg/mL (≈ 39.8 µM)	16 µg/mL (≈ 39.8 µM)			CNc1cccc2c1[nH]c1nc(Oc3ccc[n+]([O-])c3)cc(N3CC4C(N)C4C3)c12 (stereo not shown) [Compound 3.30]
2 µg/mL (≈ 4.57 µM)	8 µg/mL (≈ 18.3 µM)			CNc1cccc2c1[nH]c1nc(Oc3ccc4nccnc4c3)cc(N3CC4C(N)C4C3)c12 (stereo not shown) [Compound 3.31]
≤ 0.5 µg/mL	2 µg/mL (≈ 4.97 µM)			CNc1cccc2c1[nH]c1nc(Oc3cnc(N)nc3)cc(N3CC4C(N)C4C3)c12 (stereo not shown) [Compound 3.32]
≤ 0.5 µg/mL	1 µg/mL (≈ 2.47 µM)			CNc1cccc2c1[nH]c1nc(Oc3cncc(F)c3)cc(N3CC4C(N)C4C3)c12 (stereo not shown) [Compound 3.33]
≤ 0.5 µg/mL	≤ 0.5 µg/mL			CNc1cccc2c1[nH]c1nc(Oc3cnc4cccnc4c3)cc(N3CC4C(N)C4C3)c12 (stereo not shown) [Compound 3.34]
≤ 0.5 µg/mL	1 µg/mL (≈ 2.4 µM)			CNc1cccc2c1[nH]c1nc(Oc3cncc(OC)c3)cc(N3CC4C(N)C4C3)c12 (stereo not shown) [Compound 3.35]
≤ 0.5 µg/mL	2 µg/mL (≈ 4.54 µM)			CNc1cccc2c1[nH]c1nc(Oc3cnc4c(c3)ncn4C)cc(N3CC4C(N)C4C3)c12 (stereo not shown) [Compound 3.36]
2 µg/mL (≈ 5.19 µM)	> 64 µg/mL			CNc1cccc2c1[nH]c1nc(Oc3cncnc3)cc(Oc3cncnc3)c12 [Compound 3.37]
1 µg/mL (≈ 2.42 µM)	> 32 µg/mL			CNc1cccc2c1[nH]c1nc(Oc3cnc(C)nc3)cc(Oc3cnc(C)nc3)c12 [Compound 3.38]
2 µg/mL (≈ 4.83 µM)	64 µg/mL (≈ 154 µM)			CNc1cccc2c1[nH]c1nc(Oc3ccc[n+]([O-])c3)cc(Oc3cnc(C)nc3)c12 [Compound 3.39]
≤ 0.5 µg/mL	1 µg/mL (≈ 2.35 µM)			CNc1cccc2c1[nH]c1nc(Oc3cncc(C#N)c3)cc(N3CCC4(CC4N)C3)c12 (stereo not shown) [Compound 3.40]
≤ 0.5 µg/mL	≤ 0.5 µg/mL			CNc1cccc2c1[nH]c1nc(Oc3cncnc3)cc(N3CCC4(CC4N)C3)c12 (stereo not shown) [Compound 3.41]
≤ 0.5 µg/mL	2 µg/mL (≈ 4.81 µM)			CNc1cccc2c1[nH]c1nc(Oc3cnc(C)nc3)cc(N3CCC4(CC4N)C3)c12 (stereo not shown) [Compound 3.42]
≤ 0.5 µg/mL	1 µg/mL (≈ 2.35 µM)			CNc1cccc2c1[nH]c1nc(Oc3cncc(C#N)c3)cc(N3CC(N)C4(CC4)C3)c12 (stereo not shown) [Compound 3.43]
8 µg/mL (≈ 18.2 µM)	16 µg/mL (≈ 36.4 µM)			CNc1cccc2c1[nH]c1nc(Oc3cncc(C#N)c3)cc(N3C[C@@H](NC)C4(CC4)C3)c12 [Compound 3.44]

Compound	MIC (S. aureus ATCC 13709)	MIC (E. coli ATCC 25922)	MIC Sa (S. aureus ATCC 13709)	MIC Ec (E. coli ATCC 25922)
CCc1cc(F)cc2c1[nH]c1nc(Oc3cncnc3)nc(N3CC4CC(N)C4C3)c12 (stereo not shown) [Compound 2.5]			≤0.5 µg/mL	2 µg/mL (≈ 4.77 µM)
